We go through 21 compounds from patent US10316017B2, “COT modulators and methods of use thereof” (Gilead Sciences, Inc., priority 2015, dated 2019).

Each structure is given as a SMILES string. Read-outs that look alike come from different tables or passages of the source.

Assay [1] deals with T1, human Cot catalytic domain (30-397 amino acids) (Homo sapiens, UniProt P41279).
T1 construct: Purified recombinant human Cot catalytic domain (30-397 amino acids) was purchased from Cama Biosciences; purchased Cama Biosciences (so in the source)
Put plainly: High Throughput Cot Biochemical Assay (KinEASE TR-FRET). The note with it: read-out: IC50 HTRF. In a few lines: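 Reaction of 5 nM recombinant human Cot catalytic domain (aa 30-397) with 1 μM STK3 peptide (XL665-labeled) and 400 μM ATP in 10 mM MOPS pH 7.0, 10 mM MgOAc, 1 mM DTT, 0.5 mg/mL BSA, 0.1% DMSO. Phosphopeptide detected by TR-FRET with europium anti-phospho antibody.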
(In general: TR-FRET usually uses a lanthanide donor and a delayed reading to cut background.)

Assay [2] relates to TNFα production in LPS-stimulated human monocytes. As to the kind of experiment: Cot Monocyte TNFα Cell Based Assay. The note with it: Homo sapiens, Monocyte, read-out: EC50 TNF. In a few lines:
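Cells at 5,000/well were pretreated with compound for 1 h at 37 °C (0.5% DMSO final), then stimulated with 50 pg/ml LPS for 4 h at 37 °C. Supernatant TNFα was measured by two-antibody TR-FRET after overnight room-temperature incubation; values are percent of control between unstimulated and stimulated wells.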

The mark [3] stands for this setting: Cot biochemical HTRF (KinEASE TR-FRET) assay.
The mark [4] stands for this setting: TNFα in LPS-stimulated human monocytes.
The mark [5] stands for this setting: Cot KinEASE TR-FRET (HTRF) biochemical assay, 400 μM ATP.
The mark [6] stands for this setting: Cot KinEASE TR-FRET, 400 μM ATP.
[7] abbreviates: LPS-stimulated human monocytes, TNFα TR-FRET.

T1 sequence (P41279 30-397): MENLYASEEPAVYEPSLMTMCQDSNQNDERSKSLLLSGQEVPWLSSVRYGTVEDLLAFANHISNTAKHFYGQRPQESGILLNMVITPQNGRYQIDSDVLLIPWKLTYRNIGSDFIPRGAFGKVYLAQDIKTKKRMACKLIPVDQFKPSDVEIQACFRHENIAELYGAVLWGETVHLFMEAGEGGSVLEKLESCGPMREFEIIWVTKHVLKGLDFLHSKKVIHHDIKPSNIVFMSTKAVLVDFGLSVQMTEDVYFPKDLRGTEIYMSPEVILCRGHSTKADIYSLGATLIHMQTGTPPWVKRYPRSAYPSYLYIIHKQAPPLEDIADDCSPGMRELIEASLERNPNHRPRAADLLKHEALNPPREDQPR

Turning to `N#Cc1cnc2c(F)cc(N[C@@H](c3ccc(Cl)cc3)c3cn(C4CCN(C5COC5)CC4)nn3)cc2c1Nc1ccc(F)c(Cl)c1` [Example 708, (S)-4-((3-chloro-4-fluorophenyl)amino)-6-(((4-chlorophenyl)(1-(1-(oxetan-3-yl)piperidin-4-yl)-1H-1,2,3-triazol-4-yl)methyl)amino)-8-fluoroquinoline-3-carbonitrile], the IC50 – broadly, the concentration that gives 50% inhibition – in assay [1] (setting [3]) was 103 nM. For the same compound, in assay [2] (setting [4]), the EC50 (as a rule, the concentration at which the effect is half-maximal) was found to be 533 nM.

Turning to `CC(C)(C)CNc1c(C#N)cnc2c(Br)cc(N[C@@H](c3cccc(-c4ncco4)c3)c3cn(C4CC4)nn3)cc12` [Example 83, (S)-8-bromo-6-(((1-cyclopropyl-1H-1,2,3-triazol-4-yl) (3-(oxazol-2-yl)phenyl)methyl)amino)-4-(neopentylamino) quinoline-3-carbonitrile], the half-maximal inhibitory concentration (IC50) in assay [1] (setting [5]) was 2 nM. In assay [2] (setting [4]), the EC50 was 165 nM.

With `C[C@H](Nc1c(C#N)cnc2c(Cl)cc(N[C@@H](c3ccccc3)c3cn(C4CCN(C(C)(C)C)CC4)nn3)cc12)C(C)(C)C` [Example 486, 6-(((S)-(1-(1-(tert-butyl)piperidin-4-yl)-1H-1,2,3-triazol-4-yl)(phenyl)methyl)amino)-8-chloro-4-(((S)-3,3-dimethylbutan-2-yl)amino)quinoline-3-carbonitrile], in assay [1] (setting [3]), the concentration for half-maximal inhibition (IC50) was determined as 24 nM. Also, the EC50 in assay [2] (setting [4]) came out at 637 nM.

For the compound `CC[C@@H](Nc1c(C#N)cnc2c(Cl)cc(N[C@H](c3cn(C4CC4)nn3)c3cc(C#N)ccc3Cl)cc12)c1ccccc1` [Example 258, 8-chloro-6-(((S)-(2-chloro-5-cyanophenyl)(1-cyclopropyl-1H-1,2,3-triazol-4-yl)methyl)amino)-4-(((R)-1-phenylpropyl)amino)quinoline-3-carbonitrile], the IC50 in assay [1] (setting [5]) was determined as 44 nM. In addition, the EC50 in assay [2] (setting [4]) stood at 651 nM.

With `[2H][C@](Nc1cc(Cl)c2ncc(C#N)c(NN3CCCCCC3)c2c1)(c1ccc(F)cc1)c1cn(C2CC2)nn1` [Example 177, (S)-4-(azepan-1-ylamino)-8-chloro-6-(((1-cyclopropyl-1H-1,2,3-triazol-4-yl)(4-fluorophenyl)methyl-d)amino)quinoline-3-carbonitrile], the 50% inhibitory concentration (IC50) in assay [1] (setting [5]) is 370 nM. Besides, the EC50 in assay [2] (setting [4]) was determined as 2460 nM.

With `N#Cc1cccc([C@H](Nc2cc(Cl)c3ncc(C#N)c(Nc4cnc(F)c(F)c4)c3c2)c2c[nH]nn2)c1` [Example 424, (S)-8-chloro-6-(((3-cyanophenyl)(1H-1,2,3-triazol-4-yl)methyl)amino)-4-((5,6-difluoropyridin-3-yl)amino)quinoline-3-carbonitrile], in assay [1] (setting [3]), the concentration for half-maximal inhibition (IC50) was 6 nM. The EC50 in assay [2] (setting [4]) is 415 nM.

For `[2H][C@@](Nc1cc(Cl)c2ncc(C#N)c(NC3CC4CCC3CC4)c2c1)(c1ccc(F)cc1)c1cn(C2CC2)nn1` (stereo partly drawn) [Example 277, 4-(((1s,4s)-bicyclo[2.2.2]octan-2-yl)amino)-8-chloro-6-(((S)-(1-cyclopropyl-1H-1,2,3-triazol-4-yl)(4-fluorophenyl)methyl-d)amino)quinoline-3-carbonitrile], the concentration for half-maximal inhibition (IC50) in assay [1] (setting [5]) stood at 32 nM. Also, in assay [2] (setting [4]), the concentration giving a half-maximal response (EC50) was 858 nM.

Turning to `[2H][C@](Nc1cc(C(C)=O)c2ncc(C#N)c(NCC(C)(C)C)c2c1)(c1ccc(F)cc1)c1cn(C2CC2)nn1` [Compound 11], the concentration for half-maximal inhibition (IC50) in assay [1] (setting [5]) was found to be 5 nM. Also, the concentration giving a half-maximal response (EC50) in assay [2] (setting [4]) stood at 98 nM.

For `[2H][C@](Nc1cc(-c2ccc(NC(C)=O)cc2)c2ncc(C#N)c(NCC(C)(C)C)c2c1)(c1ccc(F)cc1)c1cn(C2CC2)nn1` [Example 169, (S)-N-(4-(3-cyano-6-(((1-cyclopropyl-1H-1,2,3-triazol-4-yl)(4-fluorophenyl)methyl-d)amino)-4-(neopentylamino)quinolin-8-yl)phenyl)acetamide], in assay [1] (setting [5]), the IC50 was found to be 543 nM. In addition, the EC50 in assay [2] (setting [4]) was 2910 nM.

Consider `Cc1c(C#N)cccc1[C@H](Nc1cc(Cl)c2ncc(C#N)c(NCC(C)(C)C)c2c1)c1cn(C(CF)CF)nn1` [Example 1102, (S)-8-chloro-6-(((3-cyano-2-methylphenyl)(1-(1,3-difluoropropan-2-yl)-1H-1,2,3-triazol-4-yl)methyl)amino)-4-(neopentylamino)quinoline-3-carbonitrile], for which, in assay [1] (setting [6]), the IC50 was 8 nM. Also, the concentration giving a half-maximal response (EC50) in assay [2] (setting [7]) stood at 63 nM.

`CC(C)(C)N1CCC(n2cc([C@@H](Nc3cc(Cl)c4ncc(C#N)c(Nc5ccc(OCc6ccccn6)c(Cl)c5)c4c3)c3ccccc3)nn2)CC1` [Example 786, (S)-6-(((1-(1-(tert-butyl)piperidin-4-yl)-1H-1,2,3-triazol-4-yl)(phenyl)methyl)amino)-8-chloro-4-((3-chloro-4-(pyridin-2-ylmethoxy)phenyl)amino)quinoline-3-carbonitrile]: the IC50 in assay [1] (setting [3]) turned out to be 173 nM. Moreover, the 50% effective concentration (EC50) in assay [2] (setting [4]) was determined as 6630 nM.

Take `CC(C)(C)CNc1c(C#N)cnc2c(C#N)cc(N[C@@H](c3ccccc3)c3cn(C45CC(C4)C5)nn3)cc12` [Example 1124, (S)-6-(((1-(bicyclo[1.1.1]pentan-1-yl)-1H-1,2,3-triazol-4-yl)(phenyl)methyl)amino)-4-(neopentylamino)quinoline-3,8-dicarbonitrile]: the IC50 in assay [1] (setting [6]) was found to be 4 nM. The EC50 in assay [2] (setting [7]) amounted to 138 nM.

Take `CC(C)(C)N1CCC(n2cc([C@@H](Nc3cc(Cl)c4ncc(C#N)c(Nc5cc(Cl)c(Cl)cc5F)c4c3)c3ccc(Cl)cc3)nn2)CC1` [Example 664, (S)-6-(((1-(1-(tert-butyl)piperidin-4-yl)-1H-1,2,3-triazol-4-yl)(4-chlorophenyl)methyl)amino)-8-chloro-4-((4,5-dichloro-2-fluorophenyl)amino)quinoline-3-carbonitrile]: the half-maximal inhibitory concentration (IC50) in assay [1] (setting [3]) was determined as 379 nM. The concentration giving a half-maximal response (EC50) in assay [2] (setting [4]) turned out to be 8150 nM.

With `[2H][C@](Nc1cc(Cl)c2ncc(C#N)c(NCC(C)(C)C)c2c1)(c1ccccc1)c1cn(C2CC2)nn1` [Example 312, (S)-8-chloro-6-(((1-cyclopropyl-1H-1,2,3-triazol-4-yl)(phenyl)methyl-d)amino)-4-(neopentylamino)quinoline-3-carbonitrile], the IC50 in assay [1] (setting [5]) was 5 nM. Moreover, the EC50 in assay [2] (setting [4]) was found to be 177 nM.

`[2H][C@@](Nc1cc(Br)c2ncc(C#N)c(N[C@H](CCC#N)c3ccccc3)c2c1)(c1cn(C2CC2)nn1)c1ccccc1Cl` [Example 930, 8-bromo-6-(((S)-(2-chlorophenyl)(1-cyclopropyl-1H-1,2,3-triazol-4-yl)methyl-d)amino)-4-(((R)-3-cyano-1-phenylpropyl)amino) quinoline-3-carbonitrile]: in assay [1] (setting [6]), the 50% inhibitory concentration (IC50) was 5 nM. Also, the concentration giving a half-maximal response (EC50) in assay [2] (setting [7]) worked out at 66 nM.

Turning to `CC(=O)Nc1cccc([C@H](Nc2cc(C#N)c3ncc(C#N)c(NCC(C)(C)C)c3c2)c2cn(C3CC3)nn2)c1` [Example 76, (S)-N-(3-((1-cyclopropyl-1H-1,2,3-triazol-4-yl)((3,8-dicyano-4-(neopentylamino)quinolin-6-yl)amino)methyl)phenyl)acetamide], the IC50 in assay [1] (setting [5]) amounted to 2 nM. The EC50 in assay [2] (setting [4]) amounted to 462 nM.

As for `CC[C@@H](Nc1c(C#N)cnc2c(Cl)cc(N[C@H](c3cn(C(F)(F)C(N)=O)nn3)c3ccccc3Cl)cc12)c1ccccc1` [Example 972, 2-(4-((S)-((8-chloro-3-cyano-4-(((R)-1-phenylpropyl)amino)quinolin-6-yl)amino) (2-chlorophenyl)methyl)-1H-1,2,3-triazol-1-yl)-2,2-difluoroacetamide], the 50% inhibitory concentration (IC50) in assay [1] (setting [6]) is 27 nM. Moreover, in assay [2] (setting [7]), the EC50 is 636 nM.

As to `[2H][C@@](Nc1cc(Cl)c2ncc(C#N)c(Nc3ccc(Cl)c(Cl)c3F)c2c1)(c1cn(C2CC2)nn1)c1ccccc1Cl` [Example 183, (S)-8-chloro-6-(((2-chlorophenyl)(1-cyclopropyl-1H-1,2,3-triazol-4-yl)methyl-d)amino)-4-((3,4-dichloro-2-fluorophenyl)amino)quinoline-3-carbonitrile], the half-inhibitory concentration (IC50) in assay [1] (setting [5]) is 89 nM. Further, in assay [2] (setting [4]), the EC50 was 1410 nM.

In the case of `Cc1cc(C#N)ccc1[C@H](Nc1cc(C#N)c2ncc(C#N)c(NCC(C)(C)C)c2c1)c1cn(C2(C(F)F)CC2)nn1` [Example 1139, (S)-6-(((4-cyano-2-methylphenyl)(1-(1-(difluoromethyl)cyclopropyl)-1H-1,2,3-triazol-4-yl)methyl)amino)-4-(neopentylamino)quinoline-3,8-dicarbonitrile], in assay [1] (setting [6]), the IC50 was 13 nM. Besides, the EC50 in assay [2] (setting [7]) stood at 82 nM.

`Cc1c([C@H](Nc2cc(Cl)c3ncc(C#N)c(NCC(C)(C)C)c3c2)c2cn(C3(C(F)(F)F)CC3)nn2)cccc1-n1cnnn1` [Example 1057, (S)-8-chloro-6-(((2-methyl-3-(1H-tetrazol-1-yl)phenyl)(1-(1-(trifluoromethyl)cyclopropyl)-1H-1,2,3-triazol-4-yl)methyl)amino)-4-(neopentylamino)quinoline-3-carbonitrile]: the IC50 in assay [1] (setting [6]) was determined as 4 nM. In addition, in assay [2] (setting [7]), the EC50 stood at 73 nM.

As to `CC(C)(C)CNc1c(C#N)cnc2c(Cl)cc(N[C@@H](c3cccc(-n4ccnc4)c3)c3cn(C4CC4)nn3)cc12` [Example 1032, (S)-6-(((3-(1H-imidazol-1-yl)phenyl)(1-cyclopropyl-1H-1,2,3-triazol-4-yl)methyl)amino)-8-chloro-4-(neopentylamino)quinoline-3-carbonitrile], in assay [1] (setting [6]), the half-inhibitory concentration (IC50) amounted to 1 nM. For the same compound, the concentration giving a half-maximal response (EC50) in assay [2] (setting [7]) is 161 nM.
